Key:
[1] = system: HeLa; experiment: Hoechst 33342 nuclear staining (Table 3); type: cell-based, human; parameters: key: 0 relating to no activity; 1 relating to weak activity comprising less than 50% of the cells; score 2 relating to strong activity comprising more than 50% of the cells
Experimental: (§1) This assay is performed in 96 well tissue culture plates. Appropriate number of cells (adherent cells: 3 - 5*10^3, suspension cells: 8 - 10*10^3) are being seeded out in 80 µl complete medium. Adherent cells are incubated for 24 h for proper spreading out before addition of test compounds while suspension cells are immediately treated with test compounds after seeding out. The test compounds are added in 20 µl complete medium containing max 5% DMSO. The final compound concentrations in the assays are 10 µM, 3 µM,1 µM and 0.3 µM, respectively. After 24 h or 48 h incubation at culture conditions, 10 µl medium containing Hoechst 33342 dye (Sigma B-2261) at 2-5 µg/ml are added to each well. The assay plates are then further incubated for 30 minutes and subsequently analyzed with a standard inverted fluorescence microscope. The readout allows the determination of the fraction of apoptotic nuclei as well as other morphological criteria specific for apoptosis as a function of the treatment. The following scores are used: 0 relating to no activity, 1 relating to weak activity comprising less than 50% of the cells and score 2 relating to strong activity comprising more than 50% of the cells.

[2] = system: Jurkat; experiment: Hoechst 33342 nuclear staining (Table 3); type: cell-based, human; parameters: key: 0 relating to no activity; 1 relating to weak activity comprising less than 50% of the cells; score 2 relating to strong activity comprising more than 50% of the cells
Experimental: as §1

[3] = system: Ramos; experiment: Hoechst 33342 nuclear staining (Table 3); type: cell-based, human; parameters: key: 0 relating to no activity; 1 relating to weak activity comprising less than 50% of the cells; score 2 relating to strong activity comprising more than 50% of the cells; settings: 24h
Experimental: as §1

[4] = system: K562; experiment: Hoechst 33342 nuclear staining (Table 3); type: cell-based, human; parameters: key: 0 relating to no activity; 1 relating to weak activity comprising less than 50% of the cells; score 2 relating to strong activity comprising more than 50% of the cells
Experimental: as §1

[5] = system: HeLa; experiment: AnnexinV/7-AAD staining; type: cell-based, human; settings: 10 µM, 24 h treatment
Experimental: (§2) Adherent cells (1 - 2*10^5) are 24 h prior to compound treatment seeded into 24 well tissue culture plates. Suspension cells are pipetted into P-tubes immediately before treatment. Test compounds are added leading to a final concentrations of 10 µM. After 24 h treatment cells are harvested (in case of adherent cells by trypsinization) and transferred to FACS tubes (BD Biosciences). After centrifugation and removal of the supernatant, 100 µl complete medium containing AnnexinV-GST (10 µg) is added, mixed and incubated at 4°C for 30 minutes. Subsequently, the cells are washed once with medium and incubated with 100 µl anti-GST Alexa 488 (Molecular Probes A-11131) in medium diluted 1:500 for 30 minutes at 4°C. Then, cells are washed once and stained with 1 µg/ml 7-aminoactinomycin D (7-AAD) (Molecular Probes A-1310) in 250 µl medium and analyzed on the FACSCalibur™. AnnexinV is measured in FL1 whereas 7-AAD is measured in FL3. In Table 5 the percentage of positively stained cells after treatment with the respective compounds are indicated. The following scores are used: Score 0 relates to less than 10%, score 1 relates to more than 10% but less than 50% and score 2 relates to more than 50% positivity.

[6] = system: Jurkat; experiment: AnnexinV/7-AAD staining; type: cell-based, human; settings: 10 µM, 24 h treatment
Experimental: as §2

[7] = system: Ramos; experiment: AnnexinV/7-AAD staining; type: cell-based, human; settings: 10 µM, 24 h treatment
Experimental: as §2

[8] = system: A20; experiment: AnnexinV/7-AAD staining; type: cell-based, mouse; settings: A20, 10 µM, 24 h treatment
Experimental: as §2

[9] = system: A20; experiment: Hoechst 33342 nuclear staining (Table 3); type: cell-based, mouse; parameters: key: 0 relating to no activity; 1 relating to weak activity comprising less than 50% of the cells; score 2 relating to strong activity comprising more than 50% of the cells
Experimental: as §1

[2-(3-Methoxy-6,6-dimethyl-5,6-dihydro-6a,7,12-triaza-dibenzofluoren-2-yloxy)-ethyl]-dimethyl-amine [No. 6]
Hoechst 33342 nuclear staining ([1]; 24h, conc 0.3 (µM)): 0 | Hoechst 33342 nuclear staining ([1]; 24h, conc 1 (µM)): 0 | Hoechst 33342 nuclear staining ([1]; 24h, conc 3 (µM)): 0 | Hoechst 33342 nuclear staining ([1]; 24h, conc 10 (µM)): 2 (score 2 relating to strong activity comprising more than 50% of the cells) | Hoechst 33342 nuclear staining ([1]; 48h, conc 0.3 (µM)): 0 | Hoechst 33342 nuclear staining ([1]; 48h, conc 1 (µM)): 0 | Hoechst 33342 nuclear staining ([1]; 48h, conc 3 (µM)): 0 | Hoechst 33342 nuclear staining ([1]; 48h, conc 10 (µM)): 2 (score 2 relating to strong activity comprising more than 50% of the cells) | Hoechst 33342 nuclear staining ([2]; 24h, conc 0.3 (µM)): 0 | Hoechst 33342 nuclear staining ([2]; 24h, conc 1 (µM)): 0 | Hoechst 33342 nuclear staining ([2]; 24h, conc 3 (µM)): 0 | Hoechst 33342 nuclear staining ([2]; 24h, conc 10 (µM)): 2 (score 2 relating to strong activity comprising more than 50% of the cells) | Hoechst 33342 nuclear staining ([2]; 48h, conc 0.3 (µM)): 0 | Hoechst 33342 nuclear staining ([2]; 48h, conc 1 (µM)): 2 (score 2 relating to strong activity comprising more than 50% of the cells) | Hoechst 33342 nuclear staining ([2]; 48h, conc 3 (µM)): 2 (score 2 relating to strong activity comprising more than 50% of the cells) | Hoechst 33342 nuclear staining ([2]; 48h, conc 10 (µM)): 2 (score 2 relating to strong activity comprising more than 50% of the cells) | Hoechst 33342 nuclear staining ([3]; conc 0.3 (µM)): 0 | Hoechst 33342 nuclear staining ([3]; conc 1 (µM)): 0 | Hoechst 33342 nuclear staining ([3]; conc 3 (µM)): 0 | Hoechst 33342 nuclear staining ([3]; conc 10 (µM)): 2 (score 2 relating to strong activity comprising more than 50% of the cells) | Hoechst 33342 nuclear staining ([4]; K562, 24h, conc 0.3 (µM)): 0 | Hoechst 33342 nuclear staining ([4]; K562, 24h, conc 1 (µM)): 0 | Hoechst 33342 nuclear staining ([4]; K562, 24h, conc 3 (µM)): 0 | Hoechst 33342 nuclear staining ([4]; K562, 24h, conc 10 (µM)): 2 (score 2 relating to strong activity comprising more than 50% of the cells) | Hoechst 33342 nuclear staining ([4]; K562, 48h, conc 0.3 (µM)): 0 | Hoechst 33342 nuclear staining ([4]; K562, 48h, conc 1 (µM)): 0 | Hoechst 33342 nuclear staining ([4]; K562, 48h, conc 3 (µM)): 0 | Hoechst 33342 nuclear staining ([4]; K562, 48h, conc 10 (µM)): 2 (score 2 relating to strong activity comprising more than 50% of the cells) | percentage of positively stained cells (AnnexinV/7-AAD staining) [5]: 2 (score 2 relates to more than 50% positivity) | percentage of positively stained cells (AnnexinV/7-AAD staining) [6]: 2 (score 2 relates to more than 50% positivity) | percentage of positively stained cells (AnnexinV/7-AAD staining) [7]: 2 (score 2 relates to more than 50% positivity) | percentage of positively stained cells (AnnexinV/7-AAD staining) [8]: 2 (score 2 relates to more than 50% positivity) | Hoechst 33342 nuclear staining ([9]; A20, 24h, conc 0.3 (µM)): 0 | Hoechst 33342 nuclear staining ([9]; A20, 24h, conc 1 (µM)): 0 | Hoechst 33342 nuclear staining ([9]; A20, 24h, conc 3 (µM)): 0 | Hoechst 33342 nuclear staining ([9]; A20, 24h, conc 10 (µM)): 0 | Hoechst 33342 nuclear staining ([9]; A20, 48h, conc 0.3 (µM)): 0 | Hoechst 33342 nuclear staining ([9]; A20, 48h, conc 1 (µM)): 0 | Hoechst 33342 nuclear staining ([9]; A20, 48h, conc 3 (µM)): 0 | Hoechst 33342 nuclear staining ([9]; A20, 48h, conc 10 (µM)): 2 (score 2 relating to strong activity comprising more than 50% of the cells)

— patent EP1433789A1, “Pyrrolopyrazines and their use as selective apoptosis inducers” (Aponetics AG, priority 2002, dated 2004)
